Assay: Human HepG2 cell viability assay in 384 well format
Assay type: toxicity, cell-based
Parameters: dose 125 nL, time 70.5 hour; concentration not given beside the values
Conditions: HepG2 cells, read-out: Inhibition

Structure (SMILES) | cytotoxicity at 70.5 h
CC(C)(C)c1cnc(CN2CCC(CN3CCOCC3)CC2)o1 | 22.6%
O=C1NCC2(CCCN(Cc3ccncc3)C2)Oc2ccccc21 (centres undefined) | -8.47%
O=C(Nc1cccnc1)[C@H]1C[C@@H]2CN(C(=O)NC3CCCC3)C[C@H]1O2 | -1.2%
Cn1cc(CNCC2(N3CCCCC3)Cc3ccccc3C2)cn1 | -4.33%
Cc1ccncc1CN1CCOCC1c1[nH]ncc1C (centres undefined) | -1.54%
CN(C)C[C@@H]1OC[C@H]2CN(Cc3ccoc3)CC[C@H]21 | -0.512%
CCC(CC)C(CNC(=O)Nc1ccc(C)cc1)N1CCOCC1 (centres undefined) | -15.7%
O=C(NCCc1nc(C2CC2)no1)[C@H]1CNC[C@H](C(=O)N2CCCC2)C1 | -1.74%
COc1c(CNC2CCCOc3ccccc32)c(C(C)C)nn1C (centres undefined) | -4.69%
N#Cc1ccccc1OCCN1CCn2c(nnc2C2CC2)C1 | 5.39%
CC(C)n1cc(CN2CCCN(C(=O)c3ccc[nH]3)CC2)cn1 | -5.05%
COc1ccc(OC)c(-n2cnnc2C)c1 | -3.42%
NC(=O)CN1CCCN(C(=O)COc2cccc(F)c2)CC1 | -25.4%
COC(=O)NCc1cc2n(n1)CCCN(C(C)=O)C2 | -7.46%
O[C@@H]1C[C@@](CNCc2cccc(Cl)c2)(COc2cccnc2)C[C@@H]1O | -2.94%
Cc1sc2nc(CCN)nc(N3CCC(N4CCCC4)CC3)c2c1C | -4.21%
O=C(c1ccsc1)N1CCO[C@@H]2CN(Cc3cccs3)C[C@@H]2C1 | -6.05%
CC(C)CCNC(=O)C1CCN(c2ccc3nnc(C(C)C)n3n2)CC1 | -30%
O=C(Nc1cc(-n2cccc2)ccc1F)N1CCCC1 | -11.7%
Cc1c(C2CCCN(C(=O)OC(C)(C)C)C2)n2c(nc1=O)CCC2 (centres undefined) | -5.64%
CC(C)OC[C@H]1CCC[C@]12CN(C(=O)C1CCOCC1)CCO2 | -8.49%
COc1ccc(S(=O)(=O)NCC(c2cccn2C)N(C)C)cc1F (centres undefined) | -8.8%
C=C(C)COc1ccccc1NC(=O)NC1CCOCC1 | 2.28%

Structure (SMILES) | cytotoxicity at 70.5 h
Cc1nc(CNc2ncc(Br)cn2)n[nH]1 | -5.62%
O=C(c1ccc(=O)[nH]n1)N1CCCC1C1CCCC1 (centres undefined) | -0.243%
O=C(NCc1ccc(-n2cncn2)nc1)c1ccc2c(c1)CCO2 | -10.1%
O=C(c1ccsc1)N1CCc2c(CNc3ncccn3)n[nH]c2C1 | 3.39%
O=C(NCc1ccco1)[C@H]1CC[C@@H]2[C@@H](CCN2Cc2nccs2)O1 | -4.65%
CCOCC(=O)NCC(Cc1cccc(F)c1)n1cccc1 (centres undefined) | -1.33%
CCn1cc(CN2CCC(N3CCC(O)CC3)CC2)cc1C#N | -5.22%
Cc1ccc2c(c1)C1(CCN(C(=O)C3CC3)CC1)CC2N1CCOCC1 (centres undefined) | -3.95%
CC(C)(C)n1ncc2c1CCCC2NCc1cccc2c1OCO2 (centres undefined) | -1.84%
CC(C)c1cnc(CN(C)C2CCN(CCc3ccncc3)C2)o1 (centres undefined) | 18.9%
Cc1cc(C2CCCN2C(=O)COc2ccc(CC#N)cc2)on1 (centres undefined) | -9.16%
CC(=O)N1CCCC1(C(=O)N1CCCC1)c1cnccn1 (centres undefined) | 0.591%
Cc1nc(NC(=O)C(C)n2ncc(Br)c2C)sc1C (centres undefined) | 1.11%
Cc1cc2c(N)nc(=O)n(CC(=O)Nc3ccccc3)c2s1 | 8.01%
Cc1nc2n(n1)CC(NCc1c(Cl)ccc3cccnc13)CC2 (centres undefined) | -9.95%
COCCN1CCOCC2(CCN(c3cnccn3)CC2)C1 | 8.46%
CN(Cc1ccco1)C(=O)Nc1cc(C(F)(F)F)c[nH]c1=O | -14.9%
Cc1nc(C2CCCN2C(=O)CCCn2cncn2)no1 (centres undefined) | -7.37%
Cc1ccc(S(=O)(=O)NC(=O)CCC2CCCO2)cc1 (centres undefined) | 0.693%
CCN1CCN(CC(C)(O)c2cccc(C(F)(F)F)c2)CC1 (centres undefined) | -10.9%
NS(=O)(=O)NCc1cc(-c2ccco2)n(CC(F)(F)F)n1 | -5.08%
Cc1occc(=O)c1OCC(=O)N1CCN(c2cccc(Cl)c2)CC1 | 2.39%
CCOCC(=O)NCc1cc(Br)ccc1OC(F)F | 0.394%

Structure (SMILES) | cytotoxicity at 70.5 h
COc1ccc(N(C)C(=O)c2ccc(Cl)c(S(C)(=O)=O)c2)cn1 | -2.77%
CCC(=O)Nc1ccc2c(c1)C1(CCOCC1)CN2CCOC | 13.5%
CCOC(=O)CNC(=O)c1cc(-c2ccccc2)nc2ncnn12 | 1.18%
O=C(NC1CCCC1)c1n[nH]c2c1CNCC2 | -12.1%
COc1ccccc1OC1(C(=O)O)CCN(c2ncnc(C)c2C)CC1 | 17.6%
O=C(CCN1CCc2ccccc21)N1C[C@@H](O)[C@H](N2CCOCC2)C1 | -3%
Cc1ccc(C(=O)NS(=O)(=O)Cc2ccc(F)cc2)cc1S(C)(=O)=O | -3.12%
COCc1nc(C2CC2)nn1-c1ccccc1Cl | -2.98%
COC(=O)CCC(=O)N1CCc2nc(C(=O)N3CCCCC3)sc2CC1 | -1.33%
N#Cc1cccnc1N1CCCN(C(=O)CCn2cccn2)CC1 | -9.39%
CCc1cc(O)nc(C2CCCN2C(=O)c2cc(CC)on2)n1 (centres undefined) | -5.67%
CC1=CC(C)(C)N(CN2C(=O)c3ccccc3C2=O)c2ccc(C)cc21 | 7.06%
OC(CN1CCN(Cc2ccc(F)cc2)CC1)C1CC1 (centres undefined) | -1.06%
C1CCC(CNC2CCSCC2)(N2CCOCC2)CC1 | 3.74%
NC(=O)COc1cccc(CN2CCc3cncnc3C2)c1 | -0.423%
O=S(=O)(c1ccc(F)cc1F)N1CCCCC1c1nnc2n1CCCC2 (centres undefined) | -12.7%
COc1ccc(CN2CCc3sccc3C2C)cc1CN1CCOCC1 (centres undefined) | -0.0983%
CN1CCCCC12Cc1ccccc1CN(C(=O)C1CCCC1)C2 (centres undefined) | -6.1%
CN(Cc1cccs1)C(=O)Cn1cc(NC(=O)C(C)(C)C)cn1 | -7.51%
COC(=O)Cn1nc(-c2ccccc2F)ccc1=O | 19.4%
CC(C)NC(=O)[C@H]1CCS(=O)(=O)[C@@H]2CN(c3ncccn3)C[C@H]12 | -6.18%
Cc1cnn(CC2CCCN2c2nn3cc(C)nc3s2)c1 (centres undefined) | -4.6%
CCN(CC)C(CNC(=O)c1c(C)noc1C(C)C)c1ccsc1 (centres undefined) | 0.627%

Structure (SMILES) | cytotoxicity at 70.5 h
COc1ccc(CCNC(=O)C2CCCOC2)c(Cl)c1 (centres undefined) | 3.61%
c1ccc(-c2cccc(-c3ccn(CCN4CCCCC4)n3)c2)nc1 | 13.3%
CN(Cc1cc(C2CC2)[nH]n1)Cc1cc2ccc(F)cc2[nH]c1=O | -12.6%
CC(C)S(=O)(=O)N(C)C(=O)CCc1ccsc1 | -12%
Cn1cnc2c1C(COCC1CC1)CN(Cc1ccc3c(c1)OCO3)C2 (centres undefined) | 36.5%
COc1ccc(Cl)cc1Nc1nc(N)c(C(C)=O)s1 | -19.7%
O=C(Cc1cccs1)N1C[C@@H]2OCCN(CC3CCCO3)[C@@H]2C1 (some centres undefined) | -1.51%
CC(C)C(=O)NCC(=O)NCC1CCN(c2cnn(C)c(=O)c2)CC1 | 23.1%
COC(=O)N1CCc2ccccc2C1C(=O)NCc1ccco1 (centres undefined) | -10.1%
CCOCC(=O)N1CCn2cc(CN(C)Cc3ccco3)nc2C1 | -0.359%
c1nc(N2CCc3nc[nH]c3C2)c2cc[nH]c2n1 | 2.38%
CC1CN(C)CCN1CC(=O)NCCOc1ccc2c(c1)OCO2 (centres undefined) | 9.64%
Cc1ccc(C(=O)N2CC(Oc3ccccc3C)C2)s1 | -12.1%
O=C(Nc1ccc2c(c1)OCO2)c1ccc(N2CCCC2)nn1 | 20.4%
OCC1CCCN1c1cc(N2CCc3ccccc3C2)ncn1 (centres undefined) | 31.1%
COc1ccc(F)c(NCc2ccc(C(=O)N(C)C)[nH]2)c1 | 15.8%
COc1ccc2c(c1)CN(c1nc(C)cc(C)n1)CC2 | 3.73%
CCC1CN(C(=O)c2[nH]nc(C)c2Br)CCO1 (centres undefined) | -6.3%
CN1CCN(C(=O)[C@@H]2C[C@@H]3CCN(c4cccc(F)c4)C[C@H]3O2)CC1 | -11.9%
CN1CCC2(CC1)CN(C(=O)c1ccncc1)Cc1ccccc12 | -2.21%
O=C(Nc1ccncc1)C1=NN(c2ccccc2)C(=O)CN1 | -16.1%
c1ccc(-n2ccc(CNC3CCc4ncnn4C3)n2)cc1 (centres undefined) | -5.75%
COc1cc(CNCc2ccnc(N3CCOCC3)c2)cc(OC)c1 | 17.7%

Structure (SMILES) | cytotoxicity at 70.5 h
COC1CCN(c2ccc(NC(=O)C3CC3)cc2C(F)(F)F)CC1 | -4.49%
Cc1nc[nH]c1C(=O)N1CCC2(CC1)CN(CCN(C)C)C(=O)O2 | -6.22%
CCN(c1ccsc1C(=O)N1CCCCC1)S(=O)(=O)c1ccccc1 | -11.9%
Cc1noc([C@H]2CC[C@@H]3[C@@H](CCN3S(C)(=O)=O)O2)n1 | 1.24%
CC(CCc1cccn1C)NC(=O)Nc1cccn(C)c1=O (centres undefined) | -10.4%
Cc1n[nH]c(C)c1NC(=O)CCc1cccc(C2CCCN(C)C2)n1 (centres undefined) | -3.99%
COc1ncccc1C(=O)N1CC(c2nc(-c3ccccn3)no2)C1 | 19.5%
Cc1ccccc1OCC(=O)N1CCOC2(CNCCOC2)C1 (centres undefined) | -5.6%
Nc1nccnc1CC1CCCN(Cc2ccnc3ccccc23)C1 (centres undefined) | 27.7%
Cn1ccnc1CC1CCCN(Cc2noc(C3CC3)n2)C1 (centres undefined) | -9.18%
O=C(N[C@@H]1CN(Cc2ccc(F)c(F)c2)C[C@H]1O)c1cscn1 | -5.02%
CN1CCN(Cc2ccncc2)C(=O)C12CCN(c1nccs1)CC2 | -2.86%
CN(CC(=O)NCCCOc1ccc(F)cc1)c1ccc(C#N)cn1 | -19%
CCCC(NC(=O)c1ccccc1Br)c1nnn[nH]1 (centres undefined) | -3.33%
O=C(c1ccc(O)c(Cl)c1)N(Cc1ccncc1)C1CC1 | -2.89%
Cc1cnn(CCNCc2ccccc2F)c1 | 0.747%
O=C(CCCN1CCOC1=O)Nc1cnn(-c2ccccc2Cl)c1 | -5.24%
Cc1cc(C)c(CNC(=O)N(C)Cc2sccc2C)c(=O)[nH]1 | -10.7%
CNCc1ccc(Oc2cncc(C)n2)cc1 | -12.9%
CCCc1nc(CN(C)CCOc2ccccc2)cs1 | -8.59%
CCC(CC)CNCC1(S(C)(=O)=O)CCOCC1 | -3.95%
COc1cccc([C@@H]2CN(C3CSCCSC3)C[C@H]2C(=O)O)c1 | -1.5%
